One compound from article PMC7404261 (2020) can be followed below.

In test [1] the test system is ssDNA-G4-Fw (DNA, G4) CGGGAAAAGGCGCGCGGAAGGGGT
The experiment in a line: ThT fluorescence titration. The following applies: Na+ (PBS), ThT 3 µM, ODN 0-6 µM, 491 nm, fitted to 1:1 model, unit not given.

In test [2] the test system is RNA-G4 (RNA, G4) GGGAAAAGGCGCGCGGAAGGGG
The experiment in a line: ThT fluorescence titration. Conditions: Na+ (PBS), ThT 3 µM, ODN 0-6 µM, 491 nm, fitted to 1:1 model, unit not given.

Take `Cc1ccc2c(c1)sc(-c1ccc(N(C)C)cc1)[n+]2C`: the values for the association constant in test [1] and in test [2] were 2.72 × 10^6 and 2.90 × 10^6, respectively.
